Consider 10 molecules from PMC7915026, “Sulfaguanidine Hybrid with Some New Pyridine-2-One Derivatives: Design, Synthesis, and Antimicrobial Activity against Multidrug-Resistant Bacteria as Dual DNA Gyrase and DHFR Inhibitors” (Antibiotics, 2021).

In brackets after ≈: the same amount, converted by molar mass. Where two headings read alike, the source gives them in different places.

The subject of data set [1] is C. albicans (ATCC 10231). Kind of data set: Inhibition zone, paper disk/agar diffusion. To be noted: Na = no activity. Type of data set: cell-based. An excerpt:
(§1) The antimicrobial activity performed at the bacteriology laboratory, Botany and Microbiology Department, Faculty of Science, Al-Azhar University, Cairo, Egypt. The inhibition zone (IZ) of the tested derivatives expressed as the diameter (mm) according to the agar plate diffusion method.
On the technique in general: A growth-free zone around the sample is the usual read-out of agar diffusion tests.

For data set [2], the system named is F. oxysporum (RCMB 008002). Kind of data set: Inhibition zone, paper disk/agar diffusion. Type of data set: cell-based. To be noted: Na = no activity.
Excerpt: as §1

In data set [3] the test system is F. oxysporum (RCMB 008002). The experiment in a line: MIC and MFC determination. Type of data set: cell-based.
In data set [4] the test system is C. albicans (ATCC 10231). Kind of data set: MIC and MFC determination. Type of data set: cell-based.
Data set [5] has as its system E. faecalis ATCC 29212. Kind of data set: Inhibition zone, paper disk/agar diffusion. Type of data set: cell-based. To be noted: E. faecalis; Na = no activity.
Excerpt: as §1

Data set [6] concerns E. coli ATCC 25922. The experiment in a line: Inhibition zone, paper disk/agar diffusion. Particulars: E. coli; Na = no activity. Type of data set: cell-based.
Excerpt: as §1

In data set [7] the test system is S. typhi ATCC 6539. The experiment in a line: Inhibition zone, paper disk/agar diffusion. Type of data set: cell-based. Particulars: S. typhi; Na = no activity.
Excerpt: as §1

Data set [8] concerns P. aeruginosa ATCC 27853. Kind of data set: Inhibition zone, paper disk/agar diffusion. Type of data set: cell-based. To be noted: P. aeruginosa; Na = no activity.
Excerpt: as §1

For data set [9], the system named is S. aureus ATCC 29213. The experiment in a line: Inhibition zone, paper disk/agar diffusion. Type of data set: cell-based. To be noted: S. aureus; Na = no activity.
Excerpt: as §1

The subject of data set [10] is B. subtilis ATCC 6633. The experiment in a line: Inhibition zone, paper disk/agar diffusion. Type of data set: cell-based. Particulars: B. subtilis; Na = no activity.
Excerpt: as §1

By MIC is commonly meant the lowest concentration that inhibits growth of the organism. On to `C[C@@H]1[C@H](O)[C@@H](C)/C=C/C=C/C=C/C=C/C=C/C=C/C=C/[C@H](O[C@@H]2O[C@H](C)[C@@H](O)[C@H](N)[C@@H]2O)C[C@@H]2O[C@](O)(C[C@@H](O)C[C@@H](O)[C@H](O)CC[C@@H](O)C[C@@H](O)CC(=O)O[C@H]1C)C[C@H](O)[C@H]2C(=O)O` [Amphotericin B, amphotericin B, reference compound], for which the “Mean Diameter of the Inhibition Zone” value is recorded as 22 ± 0.2 mm in data set [1], 22 ± 0.20 mm in data set [1] (listed as S2) and 18 ± 0.32 mm in data set [2]. The MFC in [3] (Fusarium oxysporum, RCMB008002, read-out: MFC) was determined as 70.6 µM (≈ 65.3 µg/mL); in [3] (listed as Amp. B), 70.62 ± 0.76 µM (≈ 65.3 µg/mL); in [4] (Candida albicans, ATCC10231, read-out: MFC) it was 37.3 µM (≈ 34.4 µg/mL); in data set [4] (listed as Amp. B) it was 37.26 ± 0.65 µM (≈ 34.4 µg/mL). For the same molecule, the MIC in data set [3] (Fusarium oxysporum, RCMB008002, read-out: MIC) was determined as 33.6 µM (≈ 31.1 µg/mL); in data set [3] (listed as Amp. B) it was 33.63 ± 0.98 µM (≈ 31.1 µg/mL); in data set [4] (Candida albicans, ATCC10231, read-out: MIC), 16.8 µM (≈ 15.5 µg/mL); in data set [4] (listed as Amp. B) it was 16.81 ± 0.29 µM (≈ 15.5 µg/mL).
As usually defined, the melting point is the temperature of the solid-liquid transition. The molecule `COc1ccc(-c2c(C#N)c(N)n(-c3ccc(S(=O)(=O)NC(=N)N)cc3)c(=O)c2C#N)cc1` [Compound 3b, 4-(6-Amino-3,5-dicyano-4-(4-methoxyphenyl)-2-oxopyridin-1(2H)-yl)-N-carbamimidoylbenzenesulfonamide] showed a melting point of 256 to 258 °C. Also, in [5], the “Mean Diameter of the Inhibition Zone” value was determined as 19 ± 0.65 mm. In data set [6], the “Mean Diameter of the Inhibition Zone” value is reported as 21 ± 0.11 mm. In addition, in data set [7], the “Mean Diameter of the Inhibition Zone” value came out at 14 ± 0.16 mm. Further, the “Mean Diameter of the Inhibition Zone” value in [1] stood at 12 ± 0.36 mm. Also, in data set [2], the “Mean Diameter of the Inhibition Zone” value is “no activity”.
`N#Cc1c(-c2ccc(O)cc2)c(C#N)c(=O)n(-c2ccc(S(=O)(=O)NC(=N)N)cc2)c1N` [Compound 3c, 4-(6-Amino-3,5-dicyano-4-(4-hydroxyphenyl)-2-oxopyridin-1(2H)-yl)-N-carbamimidoylbenzenesulfonamide]: the melting point lay within 265 to 268 °C. For the same molecule, the “Mean Diameter of the Inhibition Zone” value in [5] was found to be 19 ± 0.33 mm. Besides, the “Mean Diameter of the Inhibition Zone” value in data set [8] was 17 ± 0.20 mm. Besides, the “Mean Diameter of the Inhibition Zone” value in data set [7] is 20 ± 0.33 mm. The “Mean Diameter of the Inhibition Zone” value in [1] amounted to 22 ± 0.19 mm. The “Mean Diameter of the Inhibition Zone” value in [2] came out at 19 ± 0.55 mm.
Molecule `COc1ccc(-c2c(C#N)c(N)n(-c3ccc(S(=O)(=O)NC(=N)N)cc3)c(=O)c2C#N)cc1O` [Compound 3d, 4-(6-Amino-3,5-dicyano-4-(3-hydroxy-4-methoxyphenyl)-2-oxopyridin-1(2H)-yl)-N-carbamimidoylbenzenesulfonamide] registered a melting point of 250 to 252 °C. In data set [5], the “Mean Diameter of the Inhibition Zone” value worked out at 21 ± 0.54 mm. Besides, in data set [6], the “Mean Diameter of the Inhibition Zone” value is recorded as 22 ± 0.43 mm. Also, the “Mean Diameter of the Inhibition Zone” value in [7] amounted to 15 ± 0.36 mm. For the same molecule, the “Mean Diameter of the Inhibition Zone” value in [9] came to 23 ± 0.29 mm. Moreover, the “Mean Diameter of the Inhibition Zone” value in data set [10] turned out to be 20 ± 0.11 mm. Besides, the “Mean Diameter of the Inhibition Zone” value in data set [1] amounted to 17 ± 0.21 mm. Also, the “Mean Diameter of the Inhibition Zone” value in data set [2] is on record as “no activity”.
In the case of `COc1ccc(-c2c(C(=O)Nc3ccc(S(=O)(=O)NC(=N)N)cc3)c(N)[nH]c(=O)c2C#N)cc1` [Compound 6, 2-Amino-N-(4-(carbamimidoylsulfamoyl)phenyl)-5-cyano-4-(4-methoxyphenyl)-6-oxo-1,6-dihydropyridine-3-carboxamide], the melting point was 265 to 268 °C. Further, the “Mean Diameter of the Inhibition Zone” value in data set [7] is 12 ± 0.61 mm. For the same molecule, the “Mean Diameter of the Inhibition Zone” value in [9] amounted to 16 ± 0.54 mm. The “Mean Diameter of the Inhibition Zone” value in data set [10] amounted to 18 ± 0.12 mm. Also, in data set [1], the “Mean Diameter of the Inhibition Zone” value came to 18 ± 0.20 mm. In addition, the “Mean Diameter of the Inhibition Zone” value in data set [2] is on record as 14 ± 0.38 mm.
Molecule `N#Cc1c(N)cc(N)n(-c2ccc(S(=O)(=O)NC(=N)N)cc2)c1=O` [Compound 7, N-Carbamimidoyl-4-(4,6-diamino-3-cyano-2-oxopyridin-1(2H)-yl) benzenesulfonamide] returned a melting point of 260 °C. In data set [5], the “Mean Diameter of the Inhibition Zone” value is recorded as 14 ± 0.47 mm. Moreover, the “Mean Diameter of the Inhibition Zone” value in data set [8] is 12 ± 0.63 mm. In addition, in data set [10], the “Mean Diameter of the Inhibition Zone” value was determined as 13 ± 0.41 mm. Further, the “Mean Diameter of the Inhibition Zone” value in [1] was determined as 13.0 ± 0.20 mm. In addition, in data set [2], the “Mean Diameter of the Inhibition Zone” value was “no activity”.
As to `Cc1cc(C=Cc2ccc(Cl)cc2)c(C#N)c(=O)n1-c1ccc(S(=O)(=O)NC(=N)N)cc1` [Compound 9a, N-Carbamimidoyl-4-(4-(4-chlorostyryl)-3-cyano-6-methyl-2-oxopyridin-1(2H)-yl) benzene-sulfonamide], the “Mean Diameter of the Inhibition Zone” value in data set [5] amounted to 25 ± 0.11 mm; in data set [6] it was 18 ± 0.30 mm; in data set [7], 14 ± 0.52 mm; in data set [9], 17 ± 0.78 mm; in data set [10], 22 ± 0.41 mm; in data set [1], 19 ± 0.65 mm. For the same molecule, in data set [2], the “Mean Diameter of the Inhibition Zone” value is listed as “no activity”.
As for `COc1ccc(C=Cc2cc(C)n(-c3ccc(S(=O)(=O)NC(=N)N)cc3)c(=O)c2C#N)cc1` [Compound 9b, N-Carbamimidoyl-4-(3-cyano-4-(4-methoxystyryl)-6-methyl-2-oxopyridin-1(2H)-yl) benzene sulfonamide], the “Mean Diameter of the Inhibition Zone” value in data set [5] came out at 21 ± 0.55 mm; in data set [6] it was 22 ± 0.81 mm; in data set [8], 16 ± 0.20 mm; in [7] it was 20 ± 0.16 mm; in data set [9], 23 ± 0.12 mm; in data set [10] it was 23 ± 0.50 mm. Also, the “Mean Diameter of the Inhibition Zone” value is reported as 17 ± 0.56 mm in data set [1] and 15 ± 0.15 mm in data set [2].
With `Cc1cc2csc(N)c2c(=O)n1-c1ccc(S(=O)(=O)NC(=N)N)cc1` [Compound 10, 4-(3-Amino-6-methyl-4-oxothieno[3,4-c]pyridin-5(4H)-yl)-N-carbamimidoylbenzenesulfon-amide], the “Mean Diameter of the Inhibition Zone” value in [5] turned out to be 19 ± 0.63 mm; in data set [6], 20 ± 0.43 mm; in data set [8] it was 21 ± 0.54 mm; in [7], 12 ± 0.35 mm; in [9], 17 ± 0.48 mm; in data set [10], 14 ± 0.56 mm. Moreover, the “Mean Diameter of the Inhibition Zone” value in data set [1] is on record as 14 ± 0.45 mm; in data set [2] it was 16 ± 0.86 mm.
Take `N#Cc1c(N)n(-c2ccc(S(=O)(=O)NC(=N)N)cc2)c(=O)c2c(=N)oc3ccccc3c12` [Compound 12, 4-(2-Amino-1-cyano-5-imino-4-oxo-4H-chromeno[3,4-c]pyridin-3(5H)-yl)-N-cabamimidoylbenzenesulfonamide]: the melting point was in the range of 266 to 268 °C. Moreover, the “Mean Diameter of the Inhibition Zone” value in [5] came out at 12 ± 0.74 mm. Also, in data set [6], the “Mean Diameter of the Inhibition Zone” value came out at 14 ± 0.21 mm. Besides, in data set [10], the “Mean Diameter of the Inhibition Zone” value is on record as 15 ± 0.45 mm. For the same molecule, in data set [1], the “Mean Diameter of the Inhibition Zone” value was found to be 12 ± 0.50 mm. In addition, in data set [2], the “Mean Diameter of the Inhibition Zone” value is “no activity”.
